These results are taken from patent publication US20060148858A1, “1, 2-Azole derivatives with hypoglycemic and hypolipidemic activity” (priority 2002, published 2006).

Each structure is given as a SMILES string.

Compound `Cc1nn(-c2ccc(C(F)(F)F)cn2)cc1CCCOc1ccccc1CC(=O)O` [Example 141, [2-(3-{3-methyl-1-[5-(trifluoromethyl)-2-pyridyl]-1H-pyrazol-4-yl}propoxy)phenyl]acetic acid] displayed a melting point of 128 to 129 °C.

Compound `CCOc1nn(-c2ccc(C(F)(F)F)cn2)cc1CCCOc1cc(OC)ccc1CC(=O)O` [Example 142, [2-(3-{3-ethoxy-1-[5-(trifluoromethyl)-2-pyridyl]-1H-pyrazol-4-yl}propoxy)-4-methoxyphenyl]acetic acid] showed a melting point of 147 to 148 °C.

`CCOc1nn(-c2ccc(C(F)(F)F)cn2)cc1CCCOc1cc(OC)ccc1CCC(=O)O` [Example 143, 3-[2-(3-{3-ethoxy-1-[5-(trifluoromethyl)-2-pyridyl]-1H-pyrazol-4-yl}propoxy)-4-methoxyphenyl]propionic acid] gave a melting point of 115 to 116 °C.

`CCOc1nn(-c2ccc(C(F)(F)F)cn2)cc1CCCOc1ccccc1CCC(=O)O` [Example 144, 3-[2-(3-{3-ethoxy-1-[5-(trifluoromethyl)-2-pyridyl]-1H-pyrazol-4-yl}propoxy)phenyl]propionic acid] yielded a melting point of 93 to 94 °C.

`CCOc1nn(-c2ccc(C(F)(F)F)cn2)cc1CCCOc1c(CCC(=O)O)cccc1OC` [Example 145, 3-[2-(3-{3-ethoxy-1-[5-(trifluoromethyl)-2-pyridyl]-1H-pyrazol-4-yl}propoxy)-3-methoxyphenyl]propionic acid] had a melting point of 87 to 88 °C.

On to `CCCc1nn(-c2ccc(C(F)(F)F)cn2)cc1COc1cccc(CC(=O)O)c1` [Example 147, [3-({3-propyl-1-[5-(trifluoromethyl)-2-pyridyl]-1H-pyrazol-4-yl}methoxy)phenyl]acetic acid], for which the melting point is 77 to 78 °C.

With `CCOc1nn(-c2ccc(C(F)(F)F)cn2)cc1CCCOc1cccc(OC)c1CCC(=O)O` [Example 148, 3-[2-(3-{3-ethoxy-1-[5-(trifluoromethyl)-2-pyridyl]-1H-pyrazol-4-yl}propoxy)-6-methoxyphenyl]propionic acid], the melting point was 110 to 111 °C.

Turning to `Cc1nn(-c2ccc(C(F)(F)F)cn2)cc1COc1cccc(CC(=O)O)c1` [Example 149, [3-({3-methyl-1-[5-(trifluoromethyl)-2-pyridyl]-1H-pyrazol-4-yl}methoxy)phenyl]acetic acid], the melting point lay in the range of 142 to 143 °C.

Compound `CCOc1cc(OCCCc2cn(-c3ccc(C(F)(F)F)cn3)nc2O)ccc1CCC(=O)O` [Example 151, 3-[2-ethoxy-4-(3-{3-hydroxy-1-[5-(trifluoromethyl)-2-pyridyl]-1H-pyrazol-4-yl}propoxy)phenyl]propanoic acid] returned a melting point of 192 to 194 °C.

Compound `CCOc1cc(OCCCc2cn(-c3ccc(C(F)(F)F)cn3)nc2OCc2ccccc2)ccc1CCC(=O)O` [Example 156, 3-[4-(3-{3-benzyloxy-1-[5-(trifluoromethyl)-2-pyridyl]-1H-pyrazol-4-yl}propoxy)-2-ethoxyphenyl]propanoic acid] gave a melting point of 106 to 107 °C.

`CCCc1nn(-c2ccc(C(F)(F)F)cn2)cc1CCCOc1cccc(C(C)(C)C(=O)O)c1` [Example 159, 2-methyl-2-[3-(3-{3-propyl-1-[5-(trifluoromethyl)-2-pyridyl]-1H-pyrazol-4-yl}propoxy)phenyl]propanoic acid] gave a melting point of 82 to 83 °C.

Compound `CCOc1nn(-c2ccc(C(F)(F)F)cn2)cc1CCCOc1cccc(C(C)(C)C(=O)O)c1` [Example 160, 2-[3-(3-{3-ethoxy-1-[5-(trifluoromethyl)-2-pyridyl]-1H-pyrazol-4-yl}propoxy)phenyl]-2-methylpropanoic acid] displayed a melting point of 131 to 132 °C.

For the compound `CCOc1nn(-c2ccc(C(F)(F)F)cn2)cc1CCCOc1ccc(CCC(=O)O)cc1O` [Example 161, 3-[4-(3-{3-ethoxy-1-[5-(trifluoromethyl)-2-pyridyl]-1H-pyrazol-4-yl}propoxy)-3-hydroxyphenyl]propanoic acid], the melting point lay in the range of 124 to 125 °C.

As for `CCOc1cc(CCC(=O)O)ccc1OCCCc1cn(-c2ccc(C(F)(F)F)cn2)nc1OCC` [Example 162, 3-[3-ethoxy-4-(3-{3-ethoxy-1-[5-(trifluoromethyl)-2-pyridyl]-1H-pyrazol-4-yl}propoxy)phenyl]propanoic acid], the melting point was 114 to 115 °C.

As to `CCCOc1cc(CCC(=O)O)ccc1OCCCc1cn(-c2ccc(C(F)(F)F)cn2)nc1OCC` [Example 163, 3-[4-(3-{3-ethoxy-1-[5-(trifluoromethyl)-2-pyridyl]-1H-pyrazol-4-yl}propoxy)-3-propoxyphenyl]propanoic acid], the melting point lay within 106 to 107 °C.

For the compound `CCOc1nn(-c2ccc(C(F)(F)F)cn2)cc1CCCOc1ccc(CCC(=O)O)cc1OC(C)C` [Example 164, 3-[4-(3-{3-ethoxy-1-[5-(trifluoromethyl)-2-pyridyl]-1H-pyrazol-4-yl}propoxy)-3-isopropoxyphenyl]propanoic acid], the melting point lay within 93 to 94 °C.

As for `CCCCOc1cc(CCC(=O)O)ccc1OCCCc1cn(-c2ccc(C(F)(F)F)cn2)nc1OCC` [Example 165, 3-[3-butoxy-4-(3-{3-ethoxy-1-[5-(trifluoromethyl)-2-pyridyl]-1H-pyrazol-4-yl}propoxy)phenyl]propanoic acid], the melting point is 92 to 93 °C.

`CCOc1nn(-c2ccc(C(F)(F)F)cn2)cc1CCCOc1ccc(CCC(=O)O)cc1OCc1ccccc1` [Example 166, 3-[3-benzyloxy-4-(3-{3-ethoxy-1-[5-(trifluoromethyl)-2-pyridyl]-1H-pyrazol-4-yl}propoxy)phenyl]propanoic acid] registered a melting point of 115 to 116 °C.

`CCOc1nn(-c2ccc(C(F)(F)F)cn2)cc1CCCOc1cc(CCC(=O)O)cc(OC)c1` [Example 167, 3-[5-(3-{3-ethoxy-1-[5-(trifluoromethyl)-2-pyridyl]-1H-pyrazol-4-yl}propoxy)-3-methoxyphenyl]propanoic acid] had a melting point of 99 to 100 °C.

As for `CCOc1cc(OCCCc2cn(-c3ccc(C(F)(F)F)cn3)nc2O)ccc1CCC(=O)OC` [Example 171, methyl 3-[2-ethoxy-4-(3-{3-hydroxy-1-[5-(trifluoromethyl)-2-pyridyl]-1H-pyrazol-4-yl}propoxy)phenyl]propanoate], the melting point lay within 147 to 148 °C.

Regarding `CC(C)c1nn(-c2ccc(C(F)(F)F)cn2)cc1COc1cccc(CC(=O)O)c1` [Example 176, 3-{3-isopropyl-1-[5-(trifluoromethyl)-2-pyridyl]-1H-pyrazol-4-yl}methoxyphenylacetic acid], the melting point lay in the range of 114 to 115 °C.

As for `CCOc1nn(-c2ccc(C(F)(F)F)cn2)cc1CCCOc1cccc(OC)c1CC(=O)O` [Example 177, [6-(3-{3-ethoxy-1-[5-(trifluoromethyl)-2-pyridyl]-1H-pyrazol-4-yl}propoxy)-2-methoxyphenyl]acetic acid], the melting point lay within 150 to 151 °C.

`CC(C)c1nn(-c2ccc(C(F)(F)F)cc2)cc1COc1cccc(CC(=O)O)c1` [Example 178, [3-({3-isopropyl-1-[4-(trifluoromethyl)phenyl]-1H-pyrazol-4-yl}methoxy)phenyl]acetic acid] showed a melting point of 92 to 93 °C.

In the case of `COc1ccc(CC(=O)O)cc1OCCCc1cn(-c2ccc(C(F)(F)F)cn2)nc1C(C)C` [Example 183, [3-(3-{3-isopropyl-1-[5-(trifluoromethyl)-2-pyridyl]-1H-pyrazol-4-yl}propoxy)-4-methoxyphenyl]acetic acid], the melting point was 122 to 123 °C.

In the case of `O=C(O)Cc1cccc(OCc2cn(-c3ccc(C(F)(F)F)cn3)nc2C2CCCCC2)c1` [Example 187, [3-({3-cyclohexyl-1-[5-(trifluoromethyl)-2-pyridyl]-1H-pyrazol-4-yl}methoxy)phenyl]acetic acid], the melting point is 129 to 130 °C.

Consider `O=C(O)Cc1ccccc1OCc1cn(-c2ccc(C(F)(F)F)cn2)nc1C1CCCCC1` [Example 188, [2-({3-cyclohexyl-1-[5-(trifluoromethyl)-2-pyridyl]-1H-pyrazol-4-yl}methoxy)phenyl]acetic acid], for which the melting point fell in the range of 131 to 132 °C.

For `O=C(O)CCc1cccc(OCc2cn(-c3ccc(C(F)(F)F)cn3)nc2C2CCCCC2)c1` [Example 191, 3-(3-{3-cyclohexyl-1-[5-(trifluoromethyl)-2-pyridyl]-1H-pyrazol-4-yl}methoxyphenyl)propionic acid], the melting point was 94 to 95 °C.

`COc1cccc(CC(=O)O)c1OCCCc1cn(-c2nnc(C(F)(F)F)s2)nc1C(C)C` [Example 194, [3-methoxy-2-(3-{3-(1-methylethyl)-1-[5-(trifluoromethyl)-1,3,4-thiadiazole-2-yl]-1H-pyrazol-4-yl}propoxy)phenyl]acetic acid] returned a melting point of 144 to 145 °C.

Take `O=C(O)CCCc1cccc(OCc2cn(-c3ccc(C(F)(F)F)cn3)nc2C2CCCCC2)c1` [Example 195, 4-(3-{3-cyclohexyl-1-[5-(trifluoromethyl)-2-pyridyl]-1H-pyrazol-4-yl}methoxyphenyl)butanoic acid]: the melting point is 128 to 129 °C.

In turn, `CCCCc1nn(-c2ccc(C(F)(F)F)cn2)cc1CCCOc1nn(C)cc1CC(=O)O` [Example 199, [3-(3-{3-butyl-1-[5-(trifluoromethyl)-2-pyridyl]-1H-pyrazol-4-yl}propoxy)-1-methyl-1H-pyrazol-4-yl]acetic acid] registered a melting point of 125 to 126 °C.

Compound `CCCCc1nn(-c2ccc(C(F)(F)F)cn2)cc1CCCOc1cc(CC(=O)O)ccc1OCC` [Example 202, [3-(3-{3-butyl-1-[5-(trifluoromethyl)-2-pyridyl]-1H-pyrazol-4-yl}propoxy)-4-ethoxyphenyl]acetic acid] showed a melting point of 105 to 106 °C.

As to `COc1cc(CC(=O)O)cc(OCCCc2cn(-c3ccc(C(F)(F)F)cn3)nc2C(C)C)c1` [Example 203, [3-(3-{3-isopropyl-1-[5-(trifluoromethyl)-2-pyridyl]-1H-pyrazol-4-yl}propoxy)-5-methoxyphenyl]acetic acid], the melting point lay in the range of 109 to 110 °C.

Regarding `COc1ccc(CC(=O)O)c(OCCCc2cn(-c3ccc(C(F)(F)F)cn3)nc2C(C)C)c1` [Example 205, [2-(3-{3-isopropyl-1-[5-(trifluoromethyl)-2-pyridyl]-1H-pyrazol-4-yl}propoxy)-4-methoxyphenyl]acetic acid], the melting point lay within 143 to 144 °C.

What is called melting point is the temperature, or range, at which the solid turns liquid.
